Measurements reported in article PMC12382740, “In Vitro and In Vivo Characterization of Novel Cathelicidin-Based Peptides with Antimicrobial Activity Against Pseudomonas aeruginosa” (Antibiotics, 2025).
Where two headings read alike, the source gives them in different places. Square brackets hold non-standard residues; d marks the D form. Peptide text beside a SMILES is read from it.

What was measured:
[1] = tested on: A549 cells; assay type: cell-based, human; settings: for IC50: 24 h; for A549 IC50: 24 h treatment, XTT, value in brackets
Procedure: (§1) Cell viability assays were performed against HeLa and A549 cells. Cells were seeded in Corning 96-well microplates at 2 × 10^3 cells/well and 5 × 10^3 cells/well and incubated for 24 h at 37 °C. Then, cells were treated with peptides dissolved in Dulbecco’s Modified Eagle’s Medium for 24 h; peptide concentration range 0.1–100 µM. The peptide solution was then removed, and fresh medium was added to the cells. Finally, 50 µL of activated-XTT solution was added and incubated for 4 h at 37 °C. A PowerWave X reader (BioTek, Winooski, VT, USA) was used to measure absorbance at 450 nm. Cell viability was calculated through the ratio of the absorbance of peptide-treated cells over the absorbance of untreated cells. Triplicates were run for each experiment.

[2] = tested on: HeLa cells; assay type: cell-based, human; settings: 24 h
Procedure: as §1

[3] = tested on: P. aeruginosa R2 and 121110 strains; test: Transmission electron microscopy of treated bacteria; assay type: cell-based, Pseudomonas aeruginosa; settings: 4 h incubation at 4× MIC
Procedure: Bacterial strains P. aeruginosa R2 and 121110 under treatment with CAP-18, CAP-18_31, D-CAP-18, and D-CAP-18_31 were chosen for TEM visualization. A total of 5 mL AST broth cultures were prepared in 50 mL Falcon tubes and inoculated with single colonies grown in Columbia Agar incubated at 37 °C. Liquid cultures were then diluted 1:100 in fresh AST broth and incubated at 37 °C until OD 0.6 was reached. Cultures were then centrifuged 10 min at 3000× g at 4 °C, and supernatant was discarded and replaced by fresh AST. […] Results from TKC assays were used as a guidance to choose peptide concentrations and incubation times for TEM sample visualization. After incubation, tubes were centrifuged thrice for 15′ at 5000× g and 4 °C, substituting supernatant after each centrifugation by adding 10 mL PBS 1× to the pellet and resuspending. Supernatant was discarded after the final centrifugation step. Pellet was fixed by adding 1 mL of 2.5% glutaraldehyde + 2% paraformaldehyde in PBS 0.1 M at pH 7.4, and centrifuged 10′ at 5000× g and 4 °C. Supernatant was discarded 30 min after centrifugation and pellet was washed twice with 1 mL of fresh fixing solution. Samples were stored 4 °C O/N and processed by the Electronic Microscopy Unit, Medicine Faculty, University of Barcelona. University of Barcelona Microscopy Facilities.

[4] = tested on: P. aeruginosa Strain ATCC 121110; assay type: cell-based, Pseudomonas aeruginosa
Procedure: (§2) The antimicrobial activity of the peptides was tested against a collection of P. aeruginosa, selected by their resistance or susceptibility to colistin and/or classified as MDR strains. The origin of the strains was either clinical, relevant to the current clinical situation, or commercial strains belonging to the American Type Culture Collection (ATCC, Manassas, VA, USA), which complemented the collection for comparison and control. For the initial activity screening of the 17 peptides, we tested them against P. aeruginosa ATCC strains 1211007 and 1211101. Both strains are multidrug-resistant; however, the key difference is that strain 1211007 is susceptible to colistin, whereas strain 1211101 is resistant to colistin.
(§3) Minimum Inhibitory Concentration (MIC) of the antimicrobial agents against bacterial strains was obtained through broth microdilution assays following a protocol based on the Clinical & Laboratory Standards Institute’s guidelines. Modifications regarding microplate material and broth were included when testing the peptides’ activity and are detailed below. Colistin MICs were obtained following recommendations of the joint CLSI-EUCAST Polymyxin Breakpoints Working Group using Cation Adjusted Mueller-Hinton Broth (90922, 500 g Sigma-Aldrich®, St. Louis, MO, USA), and strains Escherichia coli 13846 (mcr-1 positive) and P. aeruginosa ATCC 27853 were used as quality controls in all assays. Bacteria were cultured in Columbia Agar plates (Columbia Agar with 5% Sheep Blood 90 mm Stacker plates, Becton Dickinson, Franklin Lakes, NJ, USA) and incubated overnight at 37 °C. Polypropylene round-bottomed 96-well plates (-96-well Polypropylene Storage Microplates, 267334, Thermo Fischer Scientific, Waltham, MA, USA) were used to prevent peptide binding to plate walls. AST broth (BD Phoenix™ AST broth, 8 mL, 246003, Becton Dickinson, Franklin Lakes, NJ, USA) was used when testing the peptides’ activity. […] Three biological and technical replicates were performed per strain.

[5] = tested on: P. aeruginosa strain panel; assay type: cell-based, Pseudomonas aeruginosa
Procedure: as §2, §3

[6] = tested on: P. aeruginosa Strain 121007; assay type: cell-based, Pseudomonas aeruginosa
Procedure: as §2, §3

[7] = tested on: P. aeruginosa ATCC 121110; test: Time-kill kinetic assay; assay type: cell-based, Pseudomonas aeruginosa
Procedure: (§4) Timepoints to withdraw aliquots of liquid cultures for each peptide, concentration, and strain were established at the following: 0, 2, 4, 8, and 24 h after inoculation. McFarland 0.5 solutions (~1.5 × 10^8 CFU/mL) were prepared from single-picked colonies grown O/N at 37 °C in Columbia Agar plates. Thirteen mL Falcon tubes were used to prepare solutions containing 5 mL of total volume by adding the following: 1 mL of peptide solution at 5 times chosen assay concentration to test, 3.75 mL AST, and 0.25 mL of a 1:10 McFarland dilution in AST. Positive controls contained 4.75 mL AST and 0.25 mL of strain inoculum diluted in AST; negative controls only contained 5 mL of AST. After adding the inoculum into each tube and vortexing, a 150 µL aliquot was taken from each tube at timepoint 0 h. All tubes were then placed in a 37 °C shaker-incubator at 180 rpm. Likewise, for timepoints 2, 4, 8, and 24 h, a 150 µL aliquot was withdrawn at each time for each tube. Each of these aliquots was serially diluted in 1:10 ratio in PBS 1× and 20 µL of the serial dilutions were spread on LB agar plates and incubated O/N at 37 °C. […] grown in LB agar plates were counted. Bacterial concentration (CFU/mL) for each strain, timepoint, and peptide concentration tested was calculated. Bactericidal effect was considered when there was a decrease of at least 3 in log10 (CFU/mL) for each peptide concentration at a given timepoint against each bacterial strain studied. A detection limit of 50 CFU/mL was established, corresponding to 1.70 log10 (CFU/mL), as 20 µL of each direct aliquot sample was spread in LB agar plates. Three replicates were run per peptide and strain.

[8] = tested on: P. aeruginosa R2; test: Time-kill kinetic assay; assay type: cell-based, Pseudomonas aeruginosa
Procedure: as §4

[9] = Strain ATCC 121110, value in brackets
[10] = panel of 15 P. aeruginosa strains
[11] = panel of 15 P. aeruginosa strains, value in brackets
[12] = Strain 121007, value in brackets

Row | Molecule | IC50 [1] | A549 IC50 [1] | IC50 [2] | effect on cell morphology (TEM) [3] | MIC ([4]; Strain ATCC 121110) | MIC [4, 9] | MIC50 [5, 10] | MIC90 [5, 10] | MIC50 [5, 11] | MIC90 [5, 11] | MIC ([6]; Strain 121007) | MIC [6, 12] | effect after 24 h incubation ([8]; strain R2, 4× MIC) | incubation time to bactericidal effect (decrease of at least 3 log10 CFU/mL) ([8]; strain R2, 4× MIC) | effect after 24 h incubation ([8]; strain R2, 8× MIC) | incubation time to bactericidal effect (decrease of at least 3 log10 CFU/mL) ([8]; strain R2, 8× MIC) | other results
1 | CC[C@@H](C)[C@@H](NC(=O)[C@@H](CCCCN)NC(=O)[C@@H](CCCCN)NC(=O)[C@@H](CC(C)C)NC(=O)[C@@H](CCCCN)NC(=O)[C@@H](CCC(=O)O)NC(=O)[C@@H](CCCCN)NC(=O)[C@H](NC(=O)[C@@H](CCCCN)NC(=O)[C@@H](CC(N)=O)NC(=O)[C@@H](CCCNC(=N)N)NC(=O)[C@@H](Cc1ccccc1)NC(=O)[C@@H](CCCCN)NC(=O)[C@@H](CCCNC(=N)N)NC(=O)[C@@H](CC(C)C)NC(=O)[C@@H](CCCNC(=N)N)NC(=O)[C@@H](CCCCN)NC(=O)[C@@H](CCCNC(=N)N)NC(=O)[C@@H](CC(C)C)NC(=O)CN)[C@H](C)CC)C(=O)NCC(=O)N[C@H](CCC(N)=O)C(=O)N[C@H](CCCCN)C(=O)N[C@@H](C(=O)N[C@H](CCC(N)=O)C(=O)NCC(=O)N[C@H](CC(C)C)C(=O)N[C@H](CC(C)C)C(=O)N1CCC[C@@H]1C(=O)N[C@H](CCCCN)C(=O)N[C@H](CC(C)C)C(=O)O)[C@H](C)CC [D-CAP-18_31, Glrkrlrkfrnkikeklkkigqkiqgllpkl] (H-G[dL][dR][dK][dR][dL][dR][dK][dF][dR][dN][dK][dI][dK][dE][dK][dL][dK][dK][dI]G[dQ][dK][dI][dQ]G[dL][dL][dP][dK][dL]-OH) | 12.3 µM | 45.94 µg/mL | 6.16 µM | different stages of cellular damage | 0.25 µg/mL | 0.07 µM | 4 µg/mL | 16 µg/mL | 1.1 µM | 4.3 µM | 2 µg/mL | 0.5 µM | maintained after 24 h | 8 h | maintained after 24 h | 4 h | MIC90 ([5]; strain panel): 16 µg/mL; incubation time to 3 log reduction / bactericidal effect ([7]; strain ATCC 121110, 4× MIC): 4 h; incubation time to 3 log reduction / bactericidal effect ([7]; strain ATCC 121110, 8× MIC): 4 h
2 | H-GLRKRLRKFRNKIKEKLKKIGQKIQGLLPKL-OH [CAP-18_31] | 1.31 µM | 4.89 µg/mL | 13.1 µM | different stages of cellular damage | 0.5 µg/mL | 0.1 µM | 2 µg/mL | 16 µg/mL | 0.5 µM | 4.3 µM | 8 µg/mL | 2.1 µM | bacterial regrowth | 4 h | maintained the bactericidal effect after 24 h | 4 h | MIC50 ([5]; strain panel): 2 µg/mL; effect after 24 h incubation ([7]; strain ATCC 121110, 8× MIC): total eradication of the bacterial growth; incubation time to bactericidal effect (decrease of at least 3 log10 CFU/mL) ([8]; strain R2, 2× MIC): 8 h
